Legend:
[1] = tested on: SOCE (store operated calcium entry) in CHO cells; assay: Assay of SOCE (store operated calcium entry)-inhibiting action; format: cell-based, Chinese hamster; details: for inhibition at 10 µM / inhibition at 30 µM / inhibition at 100 µM / IC50: Cricetulus griseus, CHO; for inhibition at 10 µM / inhibition at 30 µM / inhibition at 100 µM / SOCE level (percentage of inhibition): CHO cells, thapsigargin; for inhibition at 10 µM / inhibition at 30 µM / inhibition at 100 µM: read-out: SOCE level (percentage of inhibition); for IC50: Table 1
Experimental: The extracellular fluid (i.e., medium) of cultured Chinese hamster ovary (CHO) cells was replaced by BSS containing no calcium. One minute later, a test compound was added. Two minutes later, 1 μM thapsigargin was added to cause depletion of the intracellular calcium store. Nine minutes later, calcium chloride (final concentration: 2 mM) was added to the extracellular fluid. The SOCE-inhibiting action levels at different compound concentrations after the addition of calcium chloride were determined as the percentage of inhibition (%) by evaluating the influence of the compound on the degree of increase in the intracellular calcium concentration.
(§1) Hereafter, the numerals in parentheses written after the TG level, the SOCE level, and the IICR level correspond to the test compound concentrations. The number following the name of each title compound used in the Examples below represents a compound ID number designated arbitrarily by the present inventors.

[2] = tested on: IICR (IP3 induced calcium release) in CHO cells; assay: Assay of IICR (IP3 induced calcium release)-inhibiting action; format: cell-based, Chinese hamster; details: for inhibition at 10 µM / inhibition at 30 µM / inhibition at 100 µM / IC50: Cricetulus griseus, CHO; for inhibition at 10 µM / inhibition at 30 µM / inhibition at 100 µM / IICR level (percentage of inhibition): CHO cells, 10 μM ATP; for inhibition at 10 µM / inhibition at 30 µM / inhibition at 100 µM: read-out: IICR level (percentage of inhibition); for IC50: Table 1
Experimental: The extracellular fluid (i.e., medium) of cultured CHO cells was replaced by BSS containing calcium. One minute later, a test compound was added. Two minutes later, 10 μM ATP was added. The IICR-inhibiting action levels at different compound concentrations after the addition of ATP were determined as the percentage of inhibition (%) by evaluating the influence of the compound on the degree of increase in the intracellular calcium concentration.
as §1

Row | Structure (SMILES) | inhibition at 10 µM ([1]; test compound 10 μmol) | inhibition at 30 µM ([1]; test compound 30 μmol) | inhibition at 100 µM ([1]; test compound 100 μmol) | inhibition at 10 µM ([2]; test compound 10 μmol) | inhibition at 30 µM ([2]; test compound 30 μmol) | inhibition at 100 µM ([2]; test compound 100 μmol) | SOCE level (percentage of inhibition) ([1]; test compound 10 μmol) | SOCE level (percentage of inhibition) ([1]; test compound 30 μmol) | SOCE level (percentage of inhibition) ([1]; test compound 100 μmol) | IICR level (percentage of inhibition) ([2]; test compound 10 μmol) | IICR level (percentage of inhibition) ([2]; test compound 30 μmol) | IICR level (percentage of inhibition) ([2]; test compound 100 μmol) | IC50 [1] | IC50 [2]
1 | O=C(CCN1CCCCC1)c1ccc2c(Cl)cccc2c1 [Example 88, 2-piperidinoethyl-5-chloro-2-naphthylketone] | 0% | 0% | 20% | 10% | 10% | 100% |  |  |  |  |  |  |  | 
2 | O=C(CCN(CCO)Cc1ccccc1)c1ccc2c(Cl)cccc2c1 [Example 89, 2-(N-2-hydroxyethylbenzyl)aminoethyl-5-chloro-2-naphthylketone] | 0% | 10% | 80% | 30% | 80% | 100% |  |  |  |  |  |  |  | 
3 | CCC(CO)(CO)NCCC(=O)c1ccc2c(Cl)cccc2c1 [Example 90, 2-(N-1,1-dihydroxymethylpropyl)aminoethyl-5-chloro-2-naphthylketone] | 0% | 10% | 30% | 10% | 20% | 100% |  |  |  |  |  |  |  | 
4 | CCCCN(CCO)CCC(=O)c1ccc2c(Cl)cccc2c1 [Example 91, 2-(N-2-hydroxyethylbutyl)aminoethyl-5-chloro-2-naphthylketone] | 0% | 10% | 90% | 20% | 90% | 100% |  |  |  |  |  |  |  | 
5 | C=CCC(=O)c1ccc2ccccc2c1 [Example 92, Allyl-2-naphthylketone] | 0% | 0% | 0% | 0% | 0% | 30% |  |  |  |  |  |  |  | 
6 | C=CCC(=O)c1cccc2ccccc12 [Example 93, Allyl-1-naphthylketone] | 0% | 0% | 30% | 20% | 70% | 90% |  |  |  |  |  |  |  | 
7 | CC(C)(C)N(CCC(=O)c1ccccn1)Cc1ccccc1 [Example 94, 2-(N-t-butylbenzyl)aminoethyl-2-pyridylketone] | 0% | 0% | 0% | 30% | 90% | 100% |  |  |  |  |  |  |  | 
8 | O=C(CCN1CCCCC1)c1ccccn1 [Example 95, 2-piperidinoethyl-2-pyridylketone] | 0% | 0% | 0% | 0% | 10% | 10% |  |  |  |  |  |  |  | 
9 | O=C(CCN(CCO)Cc1ccccc1)c1ccccn1 [Example 96] | 0% | 0% | 0% | 20% | 30% | 100% |  |  |  |  |  |  |  | 
10 | COC(=O)C(CCC(=O)c1ccc2ccccc2c1)C(C)=O (stereo not shown) [Example 97, 3-acetyl-3-methoxycarbonylpropyl-2-naphthylketone] | 0% | 10% | 90% | 0% | 10% | 70% |  |  |  |  |  |  |  | 
11 | CCC(=O)C(CCC(=O)c1ccc2ccccc2c1)C(=O)OC (stereo not shown) [Example 98, 3-propionyl-3-methoxycarbonylpropyl-2-naphthylketone] | 0% | 10% | 60% | 0% | 0% | 0% |  |  |  |  |  |  |  | 
12 | CN(CCC(=O)c1ccc2ccccc2c1)Cc1ccccc1 [Example 99, 2-(N-methylbenzyl)aminoethyl-2-naphthylketone] |  |  |  |  |  |  | 0% | 0% | 30% | 0% | 20% | 60% |  | 
13 | CN(CCO)CCC(=O)c1ccc2ccccc2c1 [Example 100, 2-(N-methylhydroxyethyl)aminoethyl-2-naphthylketone] | 0% | 0% | 20% | 0% | 0% | 60% |  |  |  |  |  |  |  | 
14 | O=C(CCN(CCO)CCO)c1cnccn1 [Example 102, N,N-bis(2-hydroxyethyl)aminoethyl-2-pyrazylketone] | 0% | 0% | 0% | 0% | 20% | 100% |  |  |  |  |  |  |  | 
15 | CC(C)N(CCC(=O)c1ccc(Cc2ccccc2)cc1)Cc1ccccc1 [Example 103, 2-(N-isopropylbenzyl)aminoethyl-4-benzylphenylketone] |  |  |  |  |  |  | 10% | 50% | 60% | 80% | 80% | 100% |  | 
16 | CN(CCC(=O)c1ccc(Cc2ccccc2)cc1)Cc1ccccc1 [Example 104, 2-(N-methylbenzyl)aminoethyl-4-benzylphenylketone] | 0% | 10% | 70% | 40% | 20% | 90% |  |  |  |  |  |  |  | 
17 | CC(C)(C)N(CCC(=O)c1ccc(Cc2ccccc2)cc1)Cc1ccccc1 [Example 105, 2-(N-t-butylbenzyl)aminoethyl-4-benzylphenylketone] | 0% | 20% | 40% | 40% | 70% | 90% |  |  |  |  |  |  |  | 
18 | CC(C)N(CCC(=O)c1cccnc1)Cc1ccccc1 [Example 106, 2-(N-isopropylbenzyl)aminoethyl-3-pyridylketone] | 0% | 0% | 0% | 90% | 90% | 100% |  |  |  |  |  |  | > 100 µM | < 10 µM
19 | CC(C)N(CCC(=O)c1ccncc1)Cc1ccccc1 [Example 107, 2-(N-isopropylbenzyl)aminoethyl-4-pyridylketone] | 0% | 20% | 30% | 30% | 90% | 90% |  |  |  |  |  |  | > 100 µM | < 10 µM
20 | CCCCN(CCO)CCC(=O)c1cnccn1 [Example 108, 2-(N-butyl-2-hydroxyethyl)aminoethyl-2-pyrazinylketone] | 0% | 0% | 0% | 0% | 10% | 80% |  |  |  |  |  |  |  | 
21 | CC(C)N(CCC(=O)c1ccco1)Cc1ccccc1 [Example 109, 2-(N-isopropylbenzyl)aminoethyl-2-furylketone] | 0% | 0% | 10% | 20% | 90% | 70% |  |  |  |  |  |  |  | 
22 | CC(C)N(CCC(=O)c1ccc[nH]1)Cc1ccccc1 [Example 110, 2-(N-isopropylbenzyl)aminoethyl-2-pyrroleketone] | 0% | 0% | 0% | 20% | 40% | 100% |  |  |  |  |  |  |  | 
23 | CCN(CCC(=O)c1cnccn1)Cc1ccccc1 [Example 111, 2-(N-ethylbenzyl)aminoethyl-2-pyrazinylketone] | 0% | 0% | 0% | 30% | 80% | 95% |  |  |  |  |  |  |  | 
24 | O=C(CCNCCS)c1ccc(Oc2ccccc2)cc1 [Example 112, 2-(N-mercaptoethyl)aminoethyl-4-phenoxyphenylketone] | 0% | 0% | 30% | 20% | 30% | 40% |  |  |  |  |  |  |  | 
25 | O=C(CCNCCC1=NCN=C1)c1ccc(Oc2ccccc2)cc1 [Example 113] | 0% | 10% | 40% | 70% | 90% | 100% |  |  |  |  |  |  |  | 

From US8937091B2 (Japan Science and Technology Agency, priority 2009, dated 2015)
